Results reported in PubChem BioAssay (NCI).
Several values for one entry are separate records, joined by “and”; a condition that tells them apart may be missing. Equal entries are not always repeated.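 Briefly, cells in 96-well plates were exposed to five compound concentrations for 48 h, and endpoints were estimated by linear interpolation. GI50 is the concentration that inhibits growth by half. The concentration for full growth arrest is given as TGI.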

How the values were obtained:
Experiment in all cases: growth of human tumour cells (NCI), 48 h
HOP-92 NSCLC = tested on: HOP-92 NSCLC
IGROV1 ovarian = tested on: IGROV1 ovarian
KM12 colon = tested on: KM12 colon
K-562 leukemia = tested on: K-562 leukemia
HS 578T breast = tested on: HS 578T breast
A549 NSCLC = tested on: A549 NSCLC
HCT-116 colon = tested on: HCT-116 colon
SF-539 CNS = tested on: SF-539 CNS
SF-268 CNS = tested on: SF-268 CNS
HL-60(TB) leukemia = tested on: HL-60(TB) leukemia

SMILES	GI50 (HOP-92 NSCLC)	TGI (HOP-92 NSCLC)	GI50 (IGROV1 ovarian)	TGI (IGROV1 ovarian)	GI50 (KM12 colon)	TGI (KM12 colon)	GI50 (K-562 leukemia)	TGI (K-562 leukemia)	TGI (HS 578T breast)	GI50 (A549 NSCLC)	TGI (A549 NSCLC)	TGI (HCT-116 colon)	GI50 (SF-539 CNS)	TGI (SF-539 CNS)	GI50 (SF-268 CNS)	TGI (SF-268 CNS)	GI50 (HL-60(TB) leukemia)	TGI (HL-60(TB) leukemia)	GI50 (HS 578T breast)	GI50 (HCT-116 colon)
COc1nc(C(Cl)(Cl)Cl)c(Cl)c(OC)c1Cl	> 40.4 µM	> 59.3 µM and 62 µM	> 58.5 µM	89.8 µM	> 56.7 µM	> 91 µM and 70.1 µM	> 42.6 µM	> 63.4 µM and 94.2 µM	75.5 µM	> 52.5 µM	> 88.9 µM and 77.8 µM	> 57.8 µM and 78.3 µM	> 52 µM	> 86.8 µM and 77.2 µM	> 52.2 µM	> 92.1 µM and 72.2 µM	> 41.9 µM	> 60.3 µM and 71.8 µM	–	–
CC/C(=C(/c1ccc(Cl)cc1)c1ccc(OCCCN(C)C)cc1)c1ccc(OC)cc1	0.829 µM	1.97 µM	3.09 µM	10.8 µM	2.55 µM	10.1 µM	1.06 µM	2.57 µM	16.9 µM	3.88 µM	10.7 µM	1.57 µM	4.08 µM	11.6 µM	7.6 µM	16.3 µM	1.15 µM	2.84 µM	7.08 µM	0.86 µM
COc1cccc(-c2nn(C)c3sc(C(=O)NCCN4CCN(c5ccccc5F)CC4)cc23)c1	13.4 µM	> 100 µM	> 100 µM	> 100 µM	10.1 µM	> 100 µM	3.78 µM	> 100 µM	> 100 µM	15.3 µM	> 100 µM	> 100 µM	9.45 µM	> 100 µM	46.9 µM	> 100 µM	33.1 µM	> 100 µM	26.2 µM	9.91 µM
CN(Cc1cccc(Cl)c1)c1ccc(CO)c(Cl)c1	3.15 µM	19.8 µM	0.448 µM	4.16 µM	18.7 µM	43.3 µM	8.76 µM	> 100 µM	> 64.5 µM	5.19 µM	23.9 µM	11.3 µM	18.7 µM	38.7 µM	24 µM	> 53.5 µM	13.9 µM	45 µM	19.7 µM	0.481 µM
COc1cc(-c2nc3cc(Cl)c(Cl)cc3[nH]2)ccc1OCC(=O)N=Nc1c(O)[nH]c2ccccc12	0.794 µM	2.42 µM	0.313 µM	1.01 µM	1.07 µM	3.19 µM	0.345 µM	> 31.7 µM	4.05 µM	1.41 µM	14.1 µM	1.55 µM	1.08 µM	2.29 µM	0.566 µM	3.06 µM	0.392 µM	2.22 µM	1.21 µM	0.445 µM
O=C1/C=C/[C@@H](O)[C@@H]2C[C@@H](O)C[C@H]2/C=C/CCCCO1	0.368 µM	> 20.8 µM	0.831 µM	3.73 µM	0.225 µM	0.553 µM	2.02 µM	> 100 µM	> 100 µM	0.422 µM	> 100 µM	1.53 µM	0.383 µM	> 100 µM	0.33 µM	–	1.61 µM	–	0.282 µM	0.447 µM
COc1ccccc1NC(=O)C(=O)C(C#N)CC(C)(C)C=O (stereo unspecified)	–	> 100 µM	–	> 100 µM	–	> 100 µM	–	> 100 µM	> 100 µM	–	> 100 µM	> 100 µM	–	> 100 µM	–	> 100 µM	–	> 100 µM	–	–
C=CCOc1ccc2c(c1)CC[C@@H]1[C@@H]2CC[C@]2(C)C(=O)/C(=N/O)C[C@@H]12	1.52 µM	5.98 µM	3.42 µM	14.2 µM	3.27 µM	11.2 µM	2.88 µM	8.61 µM	11.4 µM	4.45 µM	> 48.8 µM	6.82 µM	15.8 µM	> 50.1 µM	3.71 µM	> 41.9 µM	0.44 µM	6.25 µM	1.93 µM	2.04 µM
COc1ccc(/C=N/C2=C(C#N)C(c3ccccc3)c3ccc4ccccc4c3O2)cc1 (stereo unspecified)	0.439 µM	> 44 µM	0.403 µM	> 100 µM	0.397 µM	> 100 µM	0.23 µM	> 100 µM	> 100 µM	0.641 µM	> 100 µM	> 37.8 µM	0.244 µM	1.05 µM	1.65 µM	> 100 µM	0.321 µM	1.44 µM	0.279 µM	0.402 µM
CC(=O)SC(C[N+](=O)[O-])c1ccccc1 (stereo unspecified)	–	30.4 µM	–	5.02 µM	–	22.6 µM	–	12.8 µM	23.4 µM	–	14 µM	4.48 µM	–	5.26 µM	–	22.6 µM	–	18.9 µM	–	–
COc1cc(Cl)c(C)cc1NC(=O)c1cc2ccccc2cc1O	0.398 µM	3.57 µM	3.04 µM	34.4 µM	2.6 µM	8.15 µM	2.82 µM	23 µM	7.35 µM	2.96 µM	10.6 µM	7.1 µM	2.81 µM	10.4 µM	3.24 µM	14.3 µM	1.89 µM	6.92 µM	2.1 µM	1.95 µM
COc1ccc(-n2cc(-c3ccc(F)cc3)[nH]c2=O)cc1OC	79.1 µM	> 100 µM	> 100 µM	> 100 µM	> 100 µM	> 100 µM	7.5 µM	> 100 µM	> 100 µM	> 100 µM	> 100 µM	> 100 µM	82.2 µM	> 100 µM	> 100 µM	> 100 µM	> 100 µM	> 100 µM	98.9 µM	> 100 µM
O=c1c(Br)ccc(Br)cc1Br	1.53 µM	3.05 µM	2.4 µM	5.64 µM	2.64 µM	6.36 µM	0.527 µM	3.64 µM	23.1 µM	9.02 µM	31.8 µM	2.88 µM	1.92 µM	4.52 µM	2.62 µM	6.57 µM	0.662 µM	2.67 µM	3.44 µM	1.51 µM
